Data as given in patent publication US12226484B2, “Compositions having improved bioavailability of therapeutics” (TRx Biosciences Limited, priority 2021, dated 2025).

Legend:
[1] = cited from earlier work
[2] = Biopharmaceutics Classification System class; cited from earlier work
[3] = Incorporation of therapeutic compound into glycerolipid formulations with digestion enhancers (visual; cooling and remelting); details: for behaviour on stepwise hard fat addition (visual): then GELUCIRE 43/01 up to 1,000 mg
[4] = reported value; cited from earlier work
[5] = Formulating procedure: dissolution and stable incorporation in glycerolipid admixture/matrix; assay type: physicochemical; details: as shown in Example 3
Experimental: As a first step, it is first determined whether a selected therapeutic compound can be formulated using 1) glycerolipids including at least one liquid fat (glycerolipid that is liquid at 18° C.) and at least one hard fat (glycerolipid that is solid at 18° C.) and 2) one or more digestion enhancers. In some embodiments, the one or more liquid and hard fats are first heated and the one or more digestion enhancers are solubilized in the glycerolipid admixture. Upon completion of solubility of the digestion enhancers, and if appropriate, the temperature of the admixture can be adjusted and a selected therapeutic compound is then dissolved in this heated admixture to incorporate the compound. […] In some embodiments, the one or more liquid fats are first heated and the one or more digestion enhancers are solubilized in the liquid fats. […] The initial heating step in all procedures is performed at a temperature sufficient to dissolve the one or more digestion enhancers and selected therapeutic compound and can be empirically determined based on the melting point of the selected components. […] Any subsequent adjustment to the heat when one or more liquid fats and/or one or more hart fats are being added to the admixture is performed at a temperature sufficient to melt the hard fats and can be empirically determined based on the melting point of the hard fat used in the formulation. […]

[6] = Oleic acid miscibility / self-emulsification in dissolution media modelling ICH dissolution testing; assay type: physicochemical; details: 1 g (100% or 75%) in one liter PBS with […] curcumin, 37° C., 300 rpm 10 minutes, then 10 minutes without stirring
Experimental: To assess whether oleic acid could self-emulsify at the concentrations used in the disclosed pharmaceutical compositions, experiments was performed that were designed to model dissolution testing according to International Council for Harmonisation (ICH) guidelines. […] Miscibility experiments were performed using two concentrations of oleic acid nominally above the CMC concentration for this fatty acid. In one series of experiments, 1 g of 100% oleic acid was added to the dissolution media. The control compound was 1 g of 100% MAISINE™ CC. In a second series of experiments 1 g of 75% oleic acid (diluted with 250 mg of MAISINE™ CC) was added to the dissolution media. The control compound was 1 g of 75% MAISINE™ CC. The miscibility of oleic acid and MAISINE™ CC was assessed by observing the dissolution media for 10 minutes with constant stirring and then 10 minutes without stirring. Photographs were taken at time 0, 1, 2, 3, 4, 5 and 10 minutes during the stirring phase and 2, 4 and 10 minutes after stirring ceased.
Both oleic acid preparations quickly distributed throughout the PBS in small but clearly defined lipid droplets which were still observable after 10 minutes of stirring. On cessation of stirring, the lipid droplets either adhered to the stirrer or floated to the top of the PBS, with the bulk of the PBS clearing. […]

[7] = Solubility of therapeutic compound in heated lipids in the absence of cholic acid (visual); details: 60° C., stirred at least 60 minutes; only MAISINE CC and MAISINE CC/GELUCIRE 43/01 in ratios of 2:1 to 1:2
Experimental: ® 43/01, was then added in a stepwise fashion of 6 g to this lipid mixture until the total amount reached 24 g. […]

[8] = previous studies; cited from earlier work

SMILES | Log P [1] | other results
C[C@]12CC[C@H](O)CC1=CC[C@@H]1[C@@H]2CC[C@]2(C)C(c3cccnc3)=CC[C@@H]12 [Abiraterone] | >1 | –
CC(C)(C)c1cc(NC(=O)Nc2ccc(Oc3ccnc4[nH]c(=O)cnc34)cc2F)n(-c2cccc(F)c2)n1 [CCT3833] | >1 | –
CC(=O)[C@H]1CC[C@H]2[C@@H]3CCC4=CC(=O)CC[C@]4(C)[C@H]3CC[C@]12C [Progesterone] | >1 | –
Cc1ccc(=O)n(-c2ccccc2)c1 [Pirfenidone] | >1 | BCS [2]: I
COc1ccc2cc([C@H](C)C(=O)O)ccc2c1 [naproxen sodium] | – | incorporation into heated glycerolipid mixture (visual) ([3]; 393 mg alone added to 500 mg MAISINE CC and 1,000 mg GELUCIRE 43/01, about 130° C.): failed to incorporate
C[C@H](O)[C@H](O)[C@H]1CNc2nc(N)[nH]c(=O)c2N1 [Sapropterin] | <1 | BCS [2]: I
O=C(c1cc(Cc2n[nH]c(=O)c3ccccc23)ccc1F)N1CCN(C(=O)C2CC2)CC1 [Olaparib] | >1 | appearance on remelting of the solid composition (visual) ([3]; MAISINE CC, fatty acid component, cholic acid and GELUCIRE 43/01, 130° C., cooled, remelted at 50° C.): no precipitate formation; behaviour on cooling and solidification (visual) ([3]; MAISINE CC, oleic acid and GELUCIRE 43/01 without cholic acid, 130° C., cooled to room temperature): precipitated out of solution
CO[C@@H]1[C@@H](OC(N)=O)[C@@H](O)[C@H](Oc2ccc3c(O)c(NC(=O)c4ccc(O)c(CC=C(C)C)c4)c(=O)oc3c2C)OC1(C)C [Novobiocin] | >1 | –
COc1ccc2[nH]c([S+]([O-])Cc3ncc(C)c(OC)c3C)nc2c1 (centres unmarked) [Omeprazole] | >1 | –
O=C(NC(Cc1cc(=O)[nH]c2ccccc12)C(=O)O)c1ccc(Cl)cc1 (centres unmarked) [Rebamipide] | >1 | –
CC(C)c1ccc2oc3nc(N)c(C(=O)O)cc3c(=O)c2c1 [Amlexanox] | >1 | –
CN(C)C(=N)N=C(N)N [Metformin] | – | BCS [2]: I
CO[C@@H]1[C@H](N(C)C(=O)c2ccccc2)C[C@H]2O[C@]1(C)n1c3ccccc3c3c4c(c5c6ccccc6n2c5c31)C(=O)NC4 [Midostaurin] | >1 | –
CCCCCCCCCCCCCCCCCC(=O)[O-].[Na+] [sodium stearate] | – | critical micellar concentration (CMC) [4]: 71 µM
COc1cc(/C=C/C(=O)CC(=O)/C=C/c2ccc(O)c(OC)c2)ccc1O [Curcumin] | >1 | solubility using a formulation disclosed herein [5]: soluble
CCCCCCCC/C=C\CCCCCCCC(=O)O [oleic acid] | – | miscibility in the dissolution media [6]: not miscible; critical micellar concentration (CMC) [4]: 2300 µM
CC(=O)OC[C@H]1O[C@@H]([S-])[C@H](OC(C)=O)[C@@H](OC(C)=O)[C@@H]1OC(C)=O.CCP(CC)CC.[Au+] [Auranofin] | – | solubility in heated lipid in the absence of cholic acid (visual) [7]: remained insoluble
COC(=O)c1ccc2c(c1)NC(=O)/C2=C(\Nc1ccc(N(C)C(=O)CN2CCN(C)CC2)cc1)c1ccccc1 [nintedanib esylate] | – | incorporation into heated glycerolipid mixture (visual) ([3]; 40 mg in 1.0 g MAISINE CC with 1.5 g oleic acid and 100 or 150 mg sodium oleate or sodium stearate, about 130° C., no cholic acid or lecithin): failed to incorporate; incorporation into heated glycerolipid mixture (visual) ([3]; 40 mg in 1.0 g MAISINE CC with 1.5 g oleic acid, sodium oleate or sodium stearate, and 30 mg of cholic acid or 30 mg lecithin, about 130° C.): became soluble

SMILES | Log P [1] | other results
O=C(C1CCCCC1)N1CC(=O)N2CCc3ccccc3C2C1 (centres unmarked) [Praziquantel] | >1 | –
CCCCCCCC(=O)N[C@H](CN1CCCC1)[C@H](O)c1ccc2c(c1)OCCO2 [Eliglustat] | >1 | BCS [2]: I or III
Clc1ccc(CCCOCCCN2CCCCC2)cc1 [Pitolisant] | >1 | BCS [2]: I
Clc1ccc(CCCOCCCN2CCCCC2)cc1 [pitolosant] | – | solubility in heated lipid in the absence of cholic acid (visual) [7]: remained insoluble
O=C(O)c1cccnc1 [Niacin] | <1 | BCS [2]: I
CC(C)NCC(O)COc1cccc2ccccc12 (centres unmarked) [Propranolol] | – | BCS [2]: I
Cc1ccc(C)c(OCCCC(C)(C)C(=O)O)c1 [Gemfibrozil] | >1 | –
CC1=C(/C=C/C(C)=C/C=C/C(C)=C/C(=O)O)C(C)(C)CCC1 [Retinoic acid] | >1 | –
O=C(c1ccc(OCCN2CCCCC2)cc1)c1c(-c2ccc(O)cc2)sc2cc(O)ccc12 [Raloxifene] | >1 | –
CN(C)CCC=C1c2ccccc2CCc2ccccc21 [Amitriptyline] | >1 | BCS [2]: I
NCCc1c[nH]c2ccc(O)cc12 [Serotonin] | <1 | –
N[C@@H](Cc1c[nH]c2ccccc12)C(=O)O [Tryptophan] | <1 | –
CC(C)OC(=O)C(C)(C)Oc1ccc(C(=O)c2ccc(Cl)cc2)cc1 [Fenofibrate] | >1 | –
C[C@@H](O[C@H]1OCCN(Cc2n[nH]c(=O)[nH]2)[C@H]1c1ccc(F)cc1)c1cc(C(F)(F)F)cc(C(F)(F)F)c1 [Aprepitant] | >1 | incorporation into heated glycerolipid mixture (visual) ([3]; 50 mg with 40 mg cholic acid added to 500 mg MAISINE CC and 1,000 mg GELUCIRE 43/01 together, about 120° C. to about 160° C.): failed to incorporate; behaviour on stepwise hard fat addition (visual) ([3]; 50 mg with 40 mg cholic acid in 500 mg MAISINE CC, about 120° C. to about 160-170° C.): remained in solution; behaviour on stepwise hard fat addition (visual) ([3]; 60 mg dissolved in 500 mg MAISINE CC without cholic acid, about 120° C. to about 160° C.): precipitate
C=C(C)[C@@H]1CCC(C)=C[C@H]1c1c(O)cc(CCCCC)cc1O [cannabidiol] | – | solubility in a glycerolipid admixture of MAISINE CC and GELUCIRE 43/01 [8]: soluble
COC(=O)c1ccc2c(c1)NC(=O)/C2=C(\Nc1ccc(N(C)C(=O)CN2CCN(C)CC2)cc1)c1ccccc1 [Nintedanib] | >1 | BCS [2]: II or IV
COC(=O)Nc1nc2ccc(C(=O)c3ccccc3)cc2[nH]1 [Mebendazole] | >1 | –
